One experiment addresses Rhesus PDE2A3 (Macaca mulatta, UniProt B3VTJ2). In words: PDE2 fluorescence polarization (IMAP FP) assay, rhesus PDE2A3. In kind it is biochemical, rhesus macaque. Particulars: Lab B, read-out: Rhesus PDE2 Ki (nM) Lab B.
For the next experiment, the target named is human PDE2A1 (Homo sapiens (Human), UniProt O00408). The experiment in a line: PDE selectivity IMAP FP assay, human PDE2A1. Type of experiment: biochemical. Particulars: Human PDE2; Lab B; read-out: Human PDE2 Ki (nM) Lab B. The procedure, abridged: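 Compound titrations run against PDE2 in Tris HCl pH 7.2 buffer with MgCl2 and DTT for 60 min at room temperature, using 50 nM FAM-cAMP plus 1000 nM cGMP and enzyme giving 20% conversion.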

What is called Ki is a measure of affinity in units of concentration, obtained from inhibition or displacement.

Chain of human PDE2A1 (O00408 other isoform, or with tags, fused parts or gaps): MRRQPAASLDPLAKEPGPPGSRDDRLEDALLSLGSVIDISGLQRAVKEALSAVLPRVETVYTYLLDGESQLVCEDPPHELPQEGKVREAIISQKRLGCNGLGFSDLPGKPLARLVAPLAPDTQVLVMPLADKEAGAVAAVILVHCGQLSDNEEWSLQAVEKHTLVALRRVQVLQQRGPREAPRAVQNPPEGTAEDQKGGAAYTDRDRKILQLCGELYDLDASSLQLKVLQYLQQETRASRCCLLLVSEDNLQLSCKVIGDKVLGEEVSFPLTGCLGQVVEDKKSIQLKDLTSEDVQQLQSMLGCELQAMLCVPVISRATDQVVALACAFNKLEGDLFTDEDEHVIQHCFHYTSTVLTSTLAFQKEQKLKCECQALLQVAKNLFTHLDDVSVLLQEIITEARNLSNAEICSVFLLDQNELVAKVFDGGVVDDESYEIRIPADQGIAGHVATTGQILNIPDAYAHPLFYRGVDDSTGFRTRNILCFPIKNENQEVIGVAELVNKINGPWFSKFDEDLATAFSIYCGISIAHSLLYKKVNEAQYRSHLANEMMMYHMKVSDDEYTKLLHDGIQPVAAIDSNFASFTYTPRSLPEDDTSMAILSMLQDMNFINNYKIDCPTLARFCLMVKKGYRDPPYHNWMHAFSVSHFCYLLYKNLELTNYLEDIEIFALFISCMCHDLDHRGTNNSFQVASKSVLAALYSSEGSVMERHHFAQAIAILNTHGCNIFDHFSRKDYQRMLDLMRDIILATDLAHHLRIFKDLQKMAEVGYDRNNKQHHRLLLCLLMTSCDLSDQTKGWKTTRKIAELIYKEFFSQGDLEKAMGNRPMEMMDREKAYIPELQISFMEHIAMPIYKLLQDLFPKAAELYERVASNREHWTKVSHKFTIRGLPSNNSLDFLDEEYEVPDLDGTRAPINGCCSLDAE
Chain of Rhesus PDE2A3 (B3VTJ2 1-941): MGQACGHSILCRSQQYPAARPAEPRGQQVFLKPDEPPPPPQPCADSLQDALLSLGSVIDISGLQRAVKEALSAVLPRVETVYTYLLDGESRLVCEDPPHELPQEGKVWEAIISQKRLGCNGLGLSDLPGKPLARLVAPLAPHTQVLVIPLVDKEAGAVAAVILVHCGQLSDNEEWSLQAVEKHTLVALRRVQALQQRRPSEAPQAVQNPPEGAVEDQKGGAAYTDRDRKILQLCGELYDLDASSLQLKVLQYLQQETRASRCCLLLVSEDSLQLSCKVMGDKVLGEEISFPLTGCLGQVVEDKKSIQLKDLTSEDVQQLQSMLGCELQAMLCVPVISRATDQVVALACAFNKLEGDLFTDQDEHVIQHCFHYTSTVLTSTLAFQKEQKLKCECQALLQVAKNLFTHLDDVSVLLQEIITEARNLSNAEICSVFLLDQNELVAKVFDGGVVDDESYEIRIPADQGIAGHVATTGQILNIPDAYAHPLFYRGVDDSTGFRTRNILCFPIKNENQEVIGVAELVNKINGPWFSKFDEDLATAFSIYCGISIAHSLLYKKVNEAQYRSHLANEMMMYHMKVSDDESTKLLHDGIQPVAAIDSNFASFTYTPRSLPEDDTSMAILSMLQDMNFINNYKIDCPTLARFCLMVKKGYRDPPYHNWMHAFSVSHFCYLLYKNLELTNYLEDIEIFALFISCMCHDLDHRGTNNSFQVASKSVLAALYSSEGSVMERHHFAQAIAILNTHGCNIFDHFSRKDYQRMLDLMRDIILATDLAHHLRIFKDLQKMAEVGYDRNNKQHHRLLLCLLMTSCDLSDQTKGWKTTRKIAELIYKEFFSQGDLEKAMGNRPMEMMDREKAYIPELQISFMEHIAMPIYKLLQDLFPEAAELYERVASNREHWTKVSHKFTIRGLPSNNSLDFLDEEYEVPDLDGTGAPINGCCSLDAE

As to `CC(C)C(c1ccc(C(F)(F)F)c(F)c1)n1nc(CO)c2c(=O)[nH]c(N(C)C)nc21` (single isomer, unassigned) [Example 143, (S)- or (R)-6-(Dimethylamino)-1-(1-(3-fluoro-4-(trifluoromethyl)phenyl)-2-methylpropyl)-3-(hydroxymethyl)-1H-pyrazolo[3,4-d]pyrimidin-4(5H)-one], the values for the Ki on Rhesus PDE2A3 and at human PDE2A1 were 0.063 nM and 0.068 nM, respectively.
With `CCC(c1ccc(C(F)(F)F)c(F)c1)n1nc(CO)c2c(=O)[nH]c(N(C)C)nc21` (single isomer, unassigned) [Example 144, (R)- or (S)-6-(Dimethylamino)-1-(1-(3-fluoro-4-(trifluoromethyl)phenyl)propyl)-3-(hydroxymethyl)-1H-pyrazolo[3,4-d]pyrimidin-4(5H)-one], the Ki at Rhesus PDE2A3 came to 3.1 nM; at human PDE2A1 it was 1.7 nM.
Turning to `CCC(c1ccc(C(F)(F)F)c(F)c1)n1nc(CO)c2c(=O)[nH]c(N(C)C)nc21` (single isomer, unassigned) [Example 145, (S)- or (R)-6-(Dimethylamino)-1-(1-(3-fluoro-4-(trifluoromethyl)phenyl)propyl)-3-(hydroxymethyl)-1H-pyrazolo[3,4-d]pyrimidin-4(5H)-one], the results for the Ki on Rhesus PDE2A3 and at human PDE2A1 were 0.13 nM and 0.11 nM, respectively.
`CC(c1ccc(OC(F)(F)F)cc1)n1nc(CO)c2c(=O)[nH]c(N(C)C)nc21` (single isomer, unassigned) [Example 148, (R)- or (S)-6-(Dimethylamino)-3-(hydroxymethyl)-1-(1-(4-(trifluoromethoxy)phenyl)ethyl)-1H-pyrazolo[3,4-d]pyrimidin-4(5H)-one]: the results for the Ki at Rhesus PDE2A3 and at human PDE2A1 were 3.3 nM and 2.6 nM, respectively.
On the same counts, the results for `CC(c1ccc(OC(F)(F)F)cc1)n1nc(CO)c2c(=O)[nH]c(N(C)C)nc21` (single isomer, unassigned) [Example 149, (S)- or (R)-6-(Dimethylamino)-3-(hydroxymethyl)-1-(1-(4-(trifluoromethoxy)phenyl)ethyl)-1H-pyrazolo[3,4-d]pyrimidin-4(5H)-one] are 0.46 nM and 0.51 nM.
With `CN(C)c1nc2c(c(CO)nn2C(c2ccc(C(F)(F)F)c(F)c2)C2CC2)c(=O)[nH]1` (single isomer, unassigned) [Example 150, (R)- or (S)-1-(Cyclopropyl(3-fluoro-4-(trifluoromelhyl)phenyl)methyl)-6-(dimethylamino)-3-(hydroxymethyl)-1H-pyrazolo[3,4-d]pyrimidin-4(5H)-one], the Ki on Rhesus PDE2A3 and at human PDE2A1 was 0.12 nM in each case.
As to `CN(C)c1nc2c(c(CO)nn2C(c2ccc(C(F)(F)F)c(F)c2)C2CC2)c(=O)[nH]1` (single isomer, unassigned) [Example 151, (S)- or (R)-1-(Cyclopropyl(3-fluoro-4-(trifluoromethyl)phenyl)methyl)-6-(dimethylamino)-3-(hydroxymethyl)-1H-pyrazolo[3,4-d]pyrimidin-4(5H)-one], the Ki on Rhesus PDE2A3 came out at 0.79 nM; on human PDE2A1, 0.61 nM.
For the compound `CN(C)c1nc2c(c(CO)nn2C(c2ccc(C(F)F)c(F)c2)C2CC2)c(=O)[nH]1` (single isomer, unassigned) [Example 152, (R)- or (S)-1-(Cyclopropyl(4-(difluoromethyl)-3-fluorophenyl)methyl)-6-(dimethylamino)-3-(hydroxymethyl)-1H-pyrazolo[3,4-d]pyrimidin-4(5H)-one], the Ki at Rhesus PDE2A3 is 0.97 nM; on human PDE2A1, 0.57 nM.
Turning to `CC(C)C(c1ccc(C(F)(F)F)cc1)n1nc(CF)c2c(=O)[nH]c(N(C)C)nc21` (single isomer, unassigned) [Example 162], the Ki at Rhesus PDE2A3 was determined as 0.63 nM; on human PDE2A1, 0.54 nM.
In the case of `CC(C)C(c1ccc(C(F)(F)F)cc1)n1nc(CF)c2c(=O)[nH]c(N(C)C)nc21` (single isomer, unassigned) [Example 163], the Ki turned out to be 0.07 nM on Rhesus PDE2A3 and 0.056 nM at human PDE2A1.
On to `CC(c1ccc(OC(F)(F)F)cc1)n1nc(CF)c2c(=O)[nH]c(N(C)C)nc21` (single isomer, unassigned) [Example 164, (R)- or (S)-6-(Dimethylammo)-3-(fluoromethyl)-1-(1-(4-(trifluoromethoxy)phenyl)ethyl)-1H-pyrazolo[3,4-d]pyrimidin-4(5H)-one], for which the values for the Ki on Rhesus PDE2A3 and at human PDE2A1 were 2 nM and 1.7 nM, respectively.
Turning to `CC(c1ccc(OC(F)(F)F)cc1)n1nc(CF)c2c(=O)[nH]c(N(C)C)nc21` (single isomer, unassigned) [Example 165, (S)- or (R)-6-(Dimethylamino)-3-(fluoromethyl)-1-(1-(4-(trifluoromethoxy)phenyl)ethyl)-1H-pyrazolo[3,4-d]pyrimidin-4(5H)-one], the Ki at Rhesus PDE2A3 came to 0.28 nM; at human PDE2A1, 0.33 nM.
On the same counts, the results for `CC(c1ccc(OC(F)(F)F)c(F)c1)n1nc(CF)c2c(=O)[nH]c(N(C)C)nc21` (single isomer, unassigned) [Example 166, (R)- or (S)-6-(Dimethylamino)-1-(1-(3-fluoro-4-(trifluoromethoxy)phenyl)ethyl)-3-(fluoromethyl)-1H-pyrazolo[3,4-d]pyrimidin-4(5H)-one] are 0.91 nM and 0.61 nM.
On to `CC(c1ccc(OC(F)(F)F)c(F)c1)n1nc(CF)c2c(=O)[nH]c(N(C)C)nc21` (single isomer, unassigned) [Example 167, (S)- or (R)-6-(Dimethylamino)-1-(1-(3-fluoro-4-(trifluoromethoxy)phenyl)ethyl)-3-(fluoromethyl)-1H-pyrazolo[3,4-d]pyrimidin-4(5H)-one], for which the Ki on Rhesus PDE2A3 is 0.18 nM; at human PDE2A1, 0.2 nM.
Consider `CC(c1ccc(C(F)(F)F)c(F)c1)n1nc(CF)c2c(=O)[nH]c(N(C)C)nc21` (single isomer, unassigned) [Example 168, (R)- or (S)-6-(Dimethylamino)-1-(1-(3-fluoro-4-(trifluoromethyl)phenyl)ethyl)-3-(fluoromethyl)-1H-pyrazolo[3,4-d]pyrimidin-4(5H)-one], for which the Ki at Rhesus PDE2A3 amounted to 8.1 nM; at human PDE2A1, 5.3 nM.
In the case of `CC(c1ccc(C(F)(F)F)c(F)c1)n1nc(CF)c2c(=O)[nH]c(N(C)C)nc21` (single isomer, unassigned) [Example 169, (S)- or (R)-6-(Dimethylamino)-1-(1-(3-fluoro-4-(trifluoromethyl)phenyl)ethyl)-3-(fluoromethyl)-1H-pyrazolo[3,4-d]pyrimidin-4(5H)-one], the Ki on Rhesus PDE2A3 was found to be 0.2 nM; on human PDE2A1, 0.099 nM.
As to `CC(c1ccc(C(C)(C)C)cc1)n1nc(CF)c2c(=O)[nH]c(N(C)C)nc21` (single isomer, unassigned) [Example 170, (R)- or (S)-1-(1-(4-tert-Butylphenyl(ethyl)-6-(dimethylamino)-3-(fluoromethyl)-1H-pyrazolo[3,4-d]pyrimidin-4(5H)-one], the Ki on Rhesus PDE2A3 is 11 nM; on human PDE2A1, 7.6 nM.
With `CC(c1ccc(C(C)(C)C)cc1)n1nc(CF)c2c(=O)[nH]c(N(C)C)nc21` (single isomer, unassigned) [Example 171, (S)- or (R)-1-(1-(4-tert-Butylphenyl)ethyl)-6-(dimethylamino)-3-(fluoromethyl)-1H-pyrazolo[3,4-d]pyrimidin-4(5H)-one], the values for the Ki at Rhesus PDE2A3 and on human PDE2A1 were 0.24 nM and 0.2 nM, respectively.
For the compound `CCC(c1ccc(C(F)(F)F)cc1)n1nc(CF)c2c(=O)[nH]c(N(C)C)nc21` (single isomer, unassigned) [Example 173, (S)- or (R)-6-(Dimethylamino)-3-(fluoromethyl)-1-(1-(4-(trifluoromethyl)phenyl)propyl)-1H-pyrazolo[3,4-d]pyrimidin-4(5H)-one], the Ki at Rhesus PDE2A3 came to 0.096 nM; at human PDE2A1, 0.063 nM.
For the compound `CC(C)c1ccc(C(C(C)C)n2nc(CF)c3c(=O)[nH]c(N(C)C)nc32)cc1` (single isomer, unassigned) [Example 176, (R)- or (S)-6-(Dimethylamino)-3-(fluoromethyl)-1-(1-(4-isopropylphenyl)-2-methylpropyl)-1H-pyrazolo[3,4-d]pyrimidin-4(5H)-one], the Ki at Rhesus PDE2A3 came to 0.28 nM; on human PDE2A1, 0.23 nM.
For `CC(C)c1ccc(C(C(C)C)n2nc(CF)c3c(=O)[nH]c(N(C)C)nc32)cc1` (single isomer, unassigned) [Example 177, (S)- or (R)-6-(Dimethylamino)-3-(fluoromethyl)-1-(1-(4-isopropylphenyl)-2-methylpropyl)-1H-pyrazolo[3,4-d]pyrimidin-4(5H)-one], the figures for the Ki on Rhesus PDE2A3 and on human PDE2A1 were 0.058 nM and 0.047 nM, respectively.
On the same counts, the results for `CN(C)c1nc2c(c(CF)nn2C(c2ccc(C(F)(F)F)cc2)C2CC2)c(=O)[nH]1` (single isomer, unassigned) [Example 179, (S)- or (R)-1-(Cyclopropyl(4-(trifluoromethyl)phenyl)methyl)-6-(dimethylamino)-3-(fluoromethyl)-1H-pyrazolo[3,4-d]pyrimidin-4(5H)-one] are 0.072 nM and 0.072 nM.
`CN(C)c1nc2c(c(CF)nn2C(c2ccc(C(F)(F)F)c(F)c2)C2CC2)c(=O)[nH]1` (single isomer, unassigned) [Example 181, (S)- or (R)-1-(Cyclopropyl(3-fluoro-4-(trifluoromethyl)phenyl)methyl)-6-(dimethylamino)-3-(fluoromethyl)-1H-pyrazolo[3,4-d]pyrimidin-4(5H)-one]: the Ki at Rhesus PDE2A3 is 0.11 nM; on human PDE2A1, 0.058 nM.
As for `CC(C)c1ccc(C(C2CC2)n2nc(CF)c3c(=O)[nH]c(N(C)C)nc32)cc1` (single isomer, unassigned) [Example 183, (R)- or (S)-1-(Cyclopropyl(4-isopropylphenyl)methyl)-6-(dimethylamino)-3-(fluoromethyl)-1H-pyrazolo[3,4-d]pyrimidin-4(5H)-one], the results for the Ki on Rhesus PDE2A3 and on human PDE2A1 were 0.082 nM and 0.064 nM, respectively.

The record behind these values is US10174037B2, “Dihydropyrazolopyrimidinone compounds as PDE2 inhibitors” (Merck Sharp & Dohme Corp., priority 2015, dated 2019).
